From patent US7700272B2, “Polynucleotides encoding acetylcholine-gated chloride channel subunits of Caenorhabditis elegans” (priority 2004, dated 2010)
“And” between values parts separate entries of the source, which are not always exact repeats. Equal entries are not always repeated. “Also recorded” adds a separate entry of the source. Where two headings read alike, the source gives them in different places. Marks after values point to notes of the source that are not given here.

Tests used:
[1] = molecular target: ACC-2D6.3 channel (Caenorhabditis elegans, UniProt Q18812); assay: cell-based
ACC-2D6.3 channel (Caenorhabditis elegans, UniProt Q18812), sequence (Q18812 whole entry, looked up): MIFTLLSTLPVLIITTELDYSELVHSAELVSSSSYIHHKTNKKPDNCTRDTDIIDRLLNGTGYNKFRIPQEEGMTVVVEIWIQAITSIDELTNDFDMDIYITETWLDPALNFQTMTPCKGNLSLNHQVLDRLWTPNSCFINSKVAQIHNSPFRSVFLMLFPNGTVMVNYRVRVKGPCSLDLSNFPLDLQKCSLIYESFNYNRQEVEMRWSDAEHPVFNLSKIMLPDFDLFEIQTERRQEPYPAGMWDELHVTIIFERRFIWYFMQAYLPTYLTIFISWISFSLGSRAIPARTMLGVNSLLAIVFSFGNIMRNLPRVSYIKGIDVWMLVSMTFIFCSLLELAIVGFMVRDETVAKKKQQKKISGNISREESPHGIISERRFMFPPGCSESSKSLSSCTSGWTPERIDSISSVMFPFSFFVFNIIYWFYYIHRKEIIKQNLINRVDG
Description: (§1) For capped cRNA synthesis, cDNAs were subcloned into the pT7N vector, which contains a T7 RNA polymerase promoter, the 5′- and 3′-UTR of Xenopus laevis beta-globin, and an encoded poly(A+) tail (Cary R B, Klymkowsky M W, Evans R M, Domingo A, Dent J A, Backhus L E (1994) Vimentin's tail interacts with actin-containing structures in vivo. J Cell Sci 107:1609-1622.). The pT7NcDNA constructs were linearized with Sal I (ACC-2D6.3) or BamHI (ACC-1G6.4) and transcribed using the MEGAscript Kit (Ambion, Austin, Tex., USA). Synthesized cRNAs were recovered by LiCl precipitation and resuspended in nuclease-free H2O at final concentration of 1 microgram/ml.
(§2) Oocytes were harvested from mature female Xenopus leavis according to standard procedures (Goldin, A. L. (1992) Maintenance of Xenopus laevis and oocyte injection. Methods Enzymol. 207: 266-79.). To remove inner ovarian epithelium, thecal cell layer, and follicular cells, the ovarian pieces were placed in OR-2 solution: 82.5 mM NaCl, 2 mM KCl, 1 mM MgCl2, and 5 mM Hepes (pH 7.5) containing 1 mg/ml type I collagenase (Sigma, St Louis Mo., USA) either for 3 hours at 20° C. with gentle agitation or for 1 hour followed by manual defolliculization. The stage VI defolliculated oocytes were placed in ND96 solution (96 mM NaCl, 2 mM KCl, 1.8 mM CaCl2, 1 mM MgCl2, and 5 mM Hepes, pH7.5). Oocytes were injected with 40 nl of cRNA using the Nanoject system (Drummond Scientific, Broomall, Pa., USA). Injected oocytes were incubated at 20° C. in ND96 supplemented with […] gentamycin and […] pyruvate. Oocytes were allowed to express cRNA for two days before measurements were taken.
(§3) Two-electrode voltage-clamp recordings were performed using the AxoClamp 2B amplifier (Axon Instruments, Foster City, Calif., USA). Microelectrodes were pulled from borosilicate glass capillaries (Word Precision Instruments, Inc., Sarasota, Fla., USA) on the P-97 micropipette puller Sutter Instruments, Novato, Calif., USA). […] Each oocyte was placed in RC-12 recording chamber (Warner Instrument Inc., Hamden, Conn., USA) or a Maltese cross chamber (ALA Scientific Instruments, Westbury, N.Y., USA) and clamped at −80 mV. Data were acquired at 1 kHz using Clampex software (Axon Instruments, Foster City, Calif., USA).
(§4) Dose-response curves for agonists were generated by their applying the agonist in increasing concentrations followed by 3-9 min washes at each concentration. To determine EC50 and Hill coefficient agonist dose response curves were fit using the following equation: f(I)=(Imax[I]^n/(EC50^n+[I]^n))+Imin, where I is the normalized response to agonist at certain concentration, Imax is the maximal response elicited by a saturating concentration of agonist, EC50 is the concentration of agonist inducing half-maximal response, n is the Hill coefficient, and Imin is the normalized response at lowest agonist concentration.
(§5) The mean and standard error of the mean of peak current responses of at least three oocytes per experiment are represented.
(§6) All drugs were obtained from Sigma-Aldrich (St. Louis, Mo. USA) except imidicloprid (IMI) which was provided by Crompton Co. (Guelph, ON, Canada). Drugs were dissolved in ND96 except IMI, which was made as a stock solution in DMSO and diluted to working concentrations in ND96. If required, drug solutions were adjusted to pH 7.5 with either NaOH or HCl. Fresh solutions were prepared before measurements and stored at 4° C. for 1-5 days.

[2] = molecular target: T1, ACC-1G6.4 channel (Caenorhabditis elegans, UniProt Q21005); assay: Two-electrode voltage-clamp of Xenopus oocytes expressing ACC-1G6.4 homomeric channel; assay type: cell-based, C. elegans; conditions: for response (in words): 1 mM
T1 construct: Agonist: percentage of maximal acetylcholine-elicited response; other: compound at 0.1 mM; Agonist: percentage of maximal acetylcholine-elicited response; other: compound at 0.2 mM; other: compound at 0.4 mM; other: compound at 0.8 mM; Agonist: percentage of maxim
T1 sequence (Q21005 whole entry, looked up): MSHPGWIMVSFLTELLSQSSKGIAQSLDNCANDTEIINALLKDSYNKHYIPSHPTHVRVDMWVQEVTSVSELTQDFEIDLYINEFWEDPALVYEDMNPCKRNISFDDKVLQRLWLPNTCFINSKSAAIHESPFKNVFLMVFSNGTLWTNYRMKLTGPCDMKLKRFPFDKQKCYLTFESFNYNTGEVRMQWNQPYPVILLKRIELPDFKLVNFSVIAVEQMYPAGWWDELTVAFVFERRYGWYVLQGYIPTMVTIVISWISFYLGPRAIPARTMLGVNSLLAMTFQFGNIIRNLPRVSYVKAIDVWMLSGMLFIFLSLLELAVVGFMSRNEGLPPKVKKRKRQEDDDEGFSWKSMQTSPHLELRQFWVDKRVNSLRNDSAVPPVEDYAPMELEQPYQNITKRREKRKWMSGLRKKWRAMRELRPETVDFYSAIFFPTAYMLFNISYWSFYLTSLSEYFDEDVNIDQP
Description: as §1, §2, §3, §4, §5, §6

[3] = tested on: ACC-4E9.9; assay: Two-electrode voltage-clamp of Xenopus oocytes injected with ACC-4E9.9 cRNA; assay type: cell-based, C. elegans; conditions: 1 mM
Description: (§7) Oocytes were harvested from mature female Xenopus leavis according to standard procedures (Goldin, A. L. (1992) Maintenance of Xenopus laevis and oocyte injection. Methods Enzymol. 207: 266-79.). To remove inner ovarian epithelium, thecal cell layer, and follicular cells, the ovarian pieces were placed in OR-2 solution: 82.5 mM NaCl, 2 mM KCl, 1 mM MgCl2, and 5 mM Hepes (pH 7.5) containing 1 mg/ml type I collagenase (Sigma, St Louis Mo., USA) either for 3 hours at 20° C. with gentle agitation or for 1 hour followed by manual defolliculization. The stage VI defolliculated oocytes were placed in ND96 solution (96 mM NaCl, 2 mM KCl, 1.8 mM CaCl2, 1 mM MgCl2, and 5 mM Hepes, pH7.5). Oocytes were injected with 40 nl of cRNA using the Nanoject system (Drummond Scientific, Broomall, Pa., USA). Injected oocytes were incubated at 20° C. in ND96 supplemented with 100 mg/ml gentamycin and 550 mg/ml pyruvate. Oocytes were allowed to express cRNA for two days before measurements were taken.

[4] = tested on: ACC-2D6.3+ACC-3D10.5; assay type: cell-based, C. elegans; conditions: 1 mM
Description: as §7

[5] = tested on: ACC-2D6.3+ACC-4E9.9; assay type: cell-based, C. elegans; conditions: 1 mM
Description: as §7

[6] = tested on: ACC-3D10.5; assay: Two-electrode voltage-clamp of Xenopus oocytes injected with ACC-3D10.5 cRNA; assay type: cell-based, C. elegans; conditions: 1 mM
Description: as §7

[7] = molecular target: rat α9nAChRs (Rattus norvegicus, UniProt P43144); conditions: cited from earlier work
rat α9nAChRs, sequence (P43144 26-479): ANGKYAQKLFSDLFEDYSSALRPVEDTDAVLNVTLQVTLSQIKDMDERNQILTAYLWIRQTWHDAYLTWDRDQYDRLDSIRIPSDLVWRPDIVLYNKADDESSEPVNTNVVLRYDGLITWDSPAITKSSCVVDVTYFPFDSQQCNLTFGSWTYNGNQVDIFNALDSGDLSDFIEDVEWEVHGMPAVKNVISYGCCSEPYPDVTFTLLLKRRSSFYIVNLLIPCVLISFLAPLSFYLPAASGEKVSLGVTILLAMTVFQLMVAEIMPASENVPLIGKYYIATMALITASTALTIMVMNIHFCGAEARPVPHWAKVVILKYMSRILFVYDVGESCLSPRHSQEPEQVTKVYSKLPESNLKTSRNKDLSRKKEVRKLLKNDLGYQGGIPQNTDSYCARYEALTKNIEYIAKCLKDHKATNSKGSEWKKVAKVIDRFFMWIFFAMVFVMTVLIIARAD

[8] = tested on: ACC-2D6.3 channel; assay: cell-based
Description: as §1, §2, §3, §4, §5, §6

[9] = tested on: Aplysia receptors mediating the slow desensitizing chloride-dependent response; conditions: cited from earlier work; for EC50: read-out: EC50 (range)
[10] = read-out: Agonist: percentage of maximal acetylcholine-elicited response
[11] = concentration tested in brackets where printed
[12] = concentration tested in brackets where printed, listed as d-tubocurarine

## C[N+](C)(C)CCCCCC[N+](C)(C)C [C6, hexamethonium]
[1]
  Agonist: percentage of maximal acetylcholine-elicited response: 0%
  antagonist action (in words): antagonists
[2]
  agonist action (in words): simultaneously as an agonist and an antagonist
  antagonist action (in words): antagonists
[2]; [10]
  activation at 200 µM: 0%
  activation at 1000 µM: 10 ± 2.6%

## NCCCC(=O)O [GABA]
[1]; 1 mM
  response (in words): did not respond
[3]
  response (in words): did not respond
[4]
  response (in words): Neither did ACC-2D6.3+ACC-3D10.5 nor ACC-2D6.3+ACC-4E9.9 expressing oocytes respond
[2]
  response (in words): did not respond
[5]
  response (in words): Neither did ACC-2D6.3+ACC-3D10.5 nor ACC-2D6.3+ACC-4E9.9 expressing oocytes respond
[6]
  response (in words): did not respond

## O=[N+]([O-])NC1=NCCN1Cc1ccc(Cl)nc1 [IMI, imidacloprid]
[1]
  antagonist action (in words): only partially blocked
[2]
  Antagonist: percentage decrease in a response to acetylcholine: 0%
[2]; compound at 10 μM, read-out: Agonist: percentage of maximal acetylcholine-elicited response
  activation at 10 µM: 0%
[2]; [11]
  antagonist action (in words): no effect

## CN1[C@@H]2CC[C@H]1C[C@@H](OC(=O)C(CO)c1ccccc1)C2 (stereo partly shown) [atropine]
[7]
  IC50: 1 µM
  agonist action (in words): no agonistic
  antagonist action (in words): Antagonist

## O=c1cccc2n1C[C@@H]1CNC[C@H]2C1 [cytisine]
[7]
  IC50: 43.1 µM
  agonist action (in words): no agonistic activity
  antagonist action (in words): Antagonist
[1]
  Agonist: percentage of maximal acetylcholine-elicited response: 15.5 ± 2.9%
  EC50: ~1000 µM
  IC50: ~100 µM
[8]
  concentrations at which channels responded: 800 to 1000 µM
[2]
  Antagonist: percentage decrease in a response to acetylcholine: 66.8 ± 3% and 95 ± 1.4%
  IC50: ~10 µM
  agonist action (in words): weak agonists and/or antagonists; also recorded: no agonistic activity
  antagonist action (in words): only as an antagonist
[2]; [10]
  activation at 800 µM: 0%
[9]
  agonist action (in words): Weak partial agonist
  estimated relative effectiveness versus acetylcholine: ~0.14
  EC50: ~100 µM

## COc1cc2c3cc1Oc1cc(ccc1O)C[C@@H]1c4c(cc(OC)c(O)c4Oc4ccc(cc4)C[C@@H]3N(C)CC2)CC[N+]1(C)C [d-TC, d-tubocurarine]
[7]; Table 4, read-out: IC50
  IC50: 0.3 µM
[7]
  antagonist action (in words): Antagonist
[1]; compound at 20 μM
  Agonist: percentage of maximal acetylcholine-elicited response: 0%
[1]; [11]
  antagonist action (in words): Antagonist
[1]; [12]
  antagonist action (in words): irreversibly
[1]; read-out: IC50 (range or bound), Table 4, order of magnitude
  IC50: < 20 µM
[2]
  Antagonist: percentage decrease in a response to acetylcholine: 100^a ^ %
[2]; Table 4, order of magnitude, read-out: IC50 (range or bound)
  IC50: < 20 µM
[2]; compound at 20 μM
  Agonist: percentage of maximal acetylcholine-elicited response: 0%
[2]; [11]
  antagonist action (in words): Antagonist
[2]; [12]
  antagonist action (in words): irreversibly
[9]; Table 4
  IC50: ~40 µM
[9]
  antagonist action (in words): Antagonist

## CO[C@H]1CC=C2CCN3CCC4=C(CC(=O)OC4)[C@]23C1 [dβe, dihydro-β-erythroidine]
[7]; Table 4, read-out: IC50
  IC50: 24.2 µM
[7]
  antagonist action (in words): Antagonist
[1]
  Agonist: percentage of maximal acetylcholine-elicited response: 0%
  IC50: ~10 µM
[2]; Table 4, order of magnitude, read-out: IC50 (range)
  IC50: ~100 µM
[2]; compound at 0.4 mM
  Agonist: percentage of maximal acetylcholine-elicited response: 0%
[2]; [11]
  antagonist action (in words): Antagonist
[2]; concentration tested in brackets where printed, listed as Dihydro-β-erythroidine
  antagonist action (in words): antagonist
[2]; concentration tested in brackets where printed, listed as dihydro-β-erythroidine
  antagonist action (in words): antagonists
[9]; Table 4
  IC50: ~20 µM
[9]
  antagonist action (in words): Antagonist

## N[C@@H](CCC(=O)O)C(=O)O [glutamate]
[1]; 1 mM
  response (in words): did not respond
[3]
  response (in words): did not respond
[4]
  response (in words): Neither did ACC-2D6.3+ACC-3D10.5 nor ACC-2D6.3+ACC-4E9.9 expressing oocytes respond
[2]
  response (in words): did not respond
[5]
  response (in words): Neither did ACC-2D6.3+ACC-3D10.5 nor ACC-2D6.3+ACC-4E9.9 expressing oocytes respond
[6]
  response (in words): did not respond

## NCC(=O)O [glycine]
[3]
  response (in words): did not respond
[2]
  response (in words): did not respond
[6]
  response (in words): did not respond

## NCCc1c[nH]cn1 [histamine]
[3]
  response (in words): did not respond
[2]
  response (in words): did not respond
[6]
  response (in words): did not respond

## C[C@@H]1O[C@H](C[N+](C)(C)C)C[C@H]1O [muscarine]
[7]
  IC50: 84 µM
  agonist action (in words): no agonistic activity
  antagonist action (in words): Antagonist
[2]
  Antagonist: percentage decrease in a response to acetylcholine: 51.6 ± 5.9%
  IC50 (range): IC50: mM range
  agonist action (in words): no agonistic activity
  antagonist action (in words): Antagonist; also recorded: weak antagonistic activity
[2]; [10]
  activation at 1000 µM: 0%

## CN1CCCC1c1cccnc1 (stereo not shown) [nicotine]
[7]
  agonist action (in words): no agonistic activity
  antagonist action (in words): Antagonist
[1]
  EC50: ~1000 µM
  antagonist action (in words): no antagonistic
[8]
  concentrations at which channels responded: 800 to 1000 µM
[2]
  EC50: ~1000 µM
  IC50: ~100 µM
  agonist action (in words): weak agonists and/or antagonists; also recorded: very weak agonist; also recorded: poorly; also recorded: Weak partial agonist
  antagonist action (in words): partial antagonist
[2]; [10]
  activation at 100 µM: 5.2 ± 1.2%
  activation at 1000 µM: 12 ± 2.7%
[9]; Table 4, order of magnitude
  EC50: ~100 µM
[9]
  agonist action (in words): Weak partial agonist

## NCCc1c[nH]c2ccc(O)cc12 [serotonin]
[1]; 1 mM
  current response: 10-30 nA
[1]; compound at 1 mM
  Agonist: percentage of maximal acetylcholine-elicited response: 3.7 ± 0.4%
[3]
  response (in words): not observed
[4]
  response (in words): Neither did ACC-2D6.3+ACC-3D10.5 nor ACC-2D6.3+ACC-4E9.9 expressing oocytes respond
[2]
  response (in words): not observed
[2]; [10]
  activation at 1000 µM: 0%
[5]
  response (in words): Neither did ACC-2D6.3+ACC-3D10.5 nor ACC-2D6.3+ACC-4E9.9 expressing oocytes respond
[6]
  response (in words): not observed

## O=C1C[C@@H]2OCC=C3CN4CC[C@]56c7ccccc7N1[C@H]5[C@H]2[C@H]3C[C@H]46 [strychnine]
[7]
  IC50: 0.0179 µM
[1]
  Agonist: percentage of maximal acetylcholine-elicited response: 0%
  antagonist action (in words): Antagonist
  estimated Hill coefficient (antagonist): 1.38±0.12
[1]; IC50 (block of channel)
  IC50: 2.95 ± 0.8 µM
[1]; IC50 (range or bound)
  IC50: ~10 µM
[2]
  Antagonist: percentage decrease in a response to acetylcholine: 96 ± 1.2%
[2]; IC50 (block of channel)
  IC50: 4.61 ± 0.27 µM
[2]; IC50 (range or bound)
  IC50: ~10 µM
[2]; [10]
  activation at 50 µM: 0%

## α-bungarotoxin [α-BT]
[7]
  antagonist action (in words): Antagonist
[7]; read-out: IC50
  IC50: 0.004 µM
[1]
  Agonist: percentage of maximal acetylcholine-elicited response: 0%
  Antagonist: percentage decrease in a response to acetylcholine: 0%
[2]
  Agonist: percentage of maximal acetylcholine-elicited response: 0%
  Antagonist: percentage decrease in a response to acetylcholine: 0%
  antagonist action (in words): no effect; also recorded: not blocked; also recorded: no antagonistic
[9]
  IC50: ~1 µM
  antagonist action (in words): Antagonist
